Drawing on publication PMC12490239, “Combining BET inhibition with SMAC mimetics restricts tumor growth and triggers immune surveillance in preclinical cancer models” (Cell Reports Medicine, 2025), this text covers IC50 for 1 compound.

One may read the IC50 as the concentration needed to halve the response being measured.

What all share (assay): cells
Set-up in all cases: CellTiter-Glo 2.0 luminescence proliferation/viability assay, single agents, human tumour cell line panel
(In ATP-based viability assays light output follows the ATP content of the culture.)

One experiment relates to HCC1833. Particulars: 96 h; single agent; read-out: IC50 SMACm. The method, boiled down: (§1)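 Human tumour cell lines were seeded into assay plates and held at 37°C with 5% CO2 for twenty-four hours, then exposed in triplicate to rising concentrations of the SMAC mimetic, from 4.5 nM to 10 μM, with DMSO as control. After 96 h, viability was read as CellTiter-Glo2.0 luminescence to derive single-agent IC50 values.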

Another experiment has as its system KM12SM. Particulars: 96 h; single agent; read-out: IC50 SMACm. In a few lines: as §1
The test system of a further experiment is ChaGo-K-1. Particulars: Homo sapiens, ChaGo-K-1, 96 h; single agent; read-out: IC50 SMACm. In a few lines:
as §1

For the next experiment, the system named is HCT-116. Particulars: Homo sapiens, HCT-116, 96 h; single agent; read-out: IC50 SMACm. The method, boiled down: as §1
The test system of a further experiment is NCI-H441. Particulars: Homo sapiens, NCI-H441, 96 h; single agent; read-out: IC50 SMACm. The method, boiled down:
as §1

In a further experiment the test system is HROC374. Particulars: 96 h; single agent; read-out: IC50 SMACm. In a few lines: as §1
The test system of another experiment is A549. Particulars: Homo sapiens, A549, 96 h; single agent; read-out: IC50 SMACm. In a few lines: as §1
The subject of another experiment is NCI-H292. Particulars: Homo sapiens, NCI-H292, 96 h; single agent; read-out: IC50 SMACm. In a few lines: as §1
In a further experiment the test system is LS-123. Particulars: Homo sapiens, LS-123, 96 h; single agent; read-out: IC50 SMACm. The method, boiled down:
as §1

The subject of a further experiment is HGC-27. Particulars: Homo sapiens, HGC-27, 96 h; single agent; read-out: IC50 SMACm. The method, boiled down:
as §1

The subject of a further experiment is C84. Particulars: 96 h; single agent; read-out: IC50 SMACm. In a few lines:
as §1

The next experiment deals with LU-99. Particulars: Homo sapiens, Lu-99, 96 h; single agent; read-out: IC50 SMACm. In a few lines:
as §1

Another experiment deals with LS-174T. Particulars: Homo sapiens, LS174T, 96 h; single agent; read-out: IC50 SMACm. The method, boiled down:
as §1

For a further experiment, the system named is CL14. Particulars: 96 h; single agent; read-out: IC50 SMACm. In a few lines:
as §1

In another experiment the test system is NCI-H747. Particulars: Homo sapiens, NCI-H747, 96 h; single agent; read-out: IC50 SMACm. In a few lines:
as §1

Consider `CN[C@@H](C)C(=O)Nc1ccc(-c2c(-c3cccnc3OC)nc3cc(C)ccn23)c(C#Cc2ccc3c(C)nccc3c2)n1` [SMACm, BI 891065], for which the IC50 in the experiment with HCC1833 turned out to be 0.102 µM; with KM12SM it was 4.31 µM; in the experiment with ChaGo-K-1 it was 5.42 µM; in the experiment on HCT-116, 4.06 µM; in the experiment with NCI-H441, 6.13 µM; in the experiment with HROC374, 3.34 µM. Moreover, the IC50 with A549 is greater than 10 µM; with NCI-H292 it was 6.03 µM; in the experiment with LS-123, 4.86 µM; in the experiment on HGC-27 it was 2.89 µM; with C84, 3.35 µM; in the experiment on LU-99, 7.37 µM. The IC50 in the experiment with LS-174T worked out at 2.41 µM; in the experiment on CL14, 1.91 µM; in the experiment on NCI-H747, 5.06 µM.
